Measurements from paper PMC13184981, “Discovery and Development of a Potent LIMK2 Isoform-Specific Degrader” (ACS Chemical Biology, 2026).

Assays:
[1] = system: HEK293T cells; assay: CellTiter-Glo 2.0 cell viability assay; assay type: cell-based, human; conditions: 24-h treatment, 25 nM to 20 µM
Method: The effects of the PROTAC on cell viability were determined using the CellTiter-Glo 2.0 Cell Viability Assay (Promega, G9241) following the manufacturer’s protocol. […] 40 μL of assay reagent was added and incubated for 10 min at RT. Filtered luminescence was measured using a PHERAstar plate reader (BMG Labtech), and data were analyzed using GraphPad Prism 9.

[2] = molecular target: T1, FLAG-tagged CRBN with MOLT-4 cell lysate (Homo sapiens, UniProt P53671+Q96SW2); assay: PROXICapture pull-down proteomics; assay type: binding; conditions: 5 μM PROTAC
T1 construct: LIMK2: endogenous, MOLT-4 cell lysate
Method: Purified FLAG-CRBN was conjugated to FLAG beads (Chromotek, cat. no. ffak) in coimmunoprecipitation buffer (50 mM Tris pH-7.5, 120 mM NaCl, 1% NP40, 0.5 mM EDTA) for 1 h at 4 °C on a rotating shaker, before addition of DMSO or 5 μM THNAN69 for 30 min at 4 °C. Subsequently, ∼ 1 mg of freshly prepared protein lysate from Molt4 cells was added to the prepared beads in IP lysate buffer (50 mM Tris pH-7.5, 120 mM NaCl, 1% NP40, 0.5 mM EDTA, protease inhibitors, phosphatase inhibitors and NEM) for 1 h at 4 °C while rotating. The beads were washed three times with IP buffer and afterward used either for Western blotting or trypsin digestion followed by LC-MS/MS analysis.
Protein-bound flag-CRBN beads were incubated with 20 μL SDC buffer (3% sodium deoxycholate in 50 mM Tris-HCl, pH 8.5) and heated for 5 min at 65 °C, and the supernatant was collected. This step was repeated one more time to get an elute of 40 μL. Further, reduction and alkylation were performed using 5 μL of 5 mM TCEP, 20 mM CAA in 50 mM Tris-HCl, pH 8.5, at 95 °C for 10 min. 500 ng of trypsin in 45 μL 50 mM Tris-HCl (pH 8.5) was added to each sample and kept for digestion at 37 °C overnight. […]
MS raw data were analyzed using FragPipe v21.1, with MSFragger v.4.0 and Philosopher v.5.1.0. […] Label-free quantification was performed using IonQuant v.1.10.27. […]

[3] = molecular target: T2, EGFP–LIMK2 (Homo sapiens, UniProt P53671); assay: EGFP-LIMK2 depletion live-cell assay (Incucyte); assay type: cell-based
T2 construct: P2A remnant (from EGFP-LIMK2-P2A-mCherry; that residues stay on LIMK2 after self-cleavage is own knowledge) (C); expressed in transfected cells; host or cells: HuCCT1 (lentiviral transduction, doxycycline-inducible pCW57 vector)
T2 sequence (P53671 whole entry): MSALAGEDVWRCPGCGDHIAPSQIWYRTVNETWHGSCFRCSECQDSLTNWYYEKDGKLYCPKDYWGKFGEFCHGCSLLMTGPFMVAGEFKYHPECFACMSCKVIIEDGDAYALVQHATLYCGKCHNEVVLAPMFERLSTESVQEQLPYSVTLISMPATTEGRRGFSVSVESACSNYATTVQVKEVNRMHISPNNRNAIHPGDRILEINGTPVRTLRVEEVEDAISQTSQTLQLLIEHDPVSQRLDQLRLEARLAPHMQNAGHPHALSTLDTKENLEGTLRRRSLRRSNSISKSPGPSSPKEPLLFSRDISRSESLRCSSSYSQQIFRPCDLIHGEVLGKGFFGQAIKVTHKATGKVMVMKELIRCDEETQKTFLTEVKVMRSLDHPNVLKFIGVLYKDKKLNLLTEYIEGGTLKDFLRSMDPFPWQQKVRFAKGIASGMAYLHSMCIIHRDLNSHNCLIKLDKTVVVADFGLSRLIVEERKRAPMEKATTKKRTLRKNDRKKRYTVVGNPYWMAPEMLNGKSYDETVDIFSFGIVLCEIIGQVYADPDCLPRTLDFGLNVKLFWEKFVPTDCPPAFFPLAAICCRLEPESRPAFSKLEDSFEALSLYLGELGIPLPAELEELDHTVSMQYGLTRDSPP

T1 sequence (Q96SW2 whole entry): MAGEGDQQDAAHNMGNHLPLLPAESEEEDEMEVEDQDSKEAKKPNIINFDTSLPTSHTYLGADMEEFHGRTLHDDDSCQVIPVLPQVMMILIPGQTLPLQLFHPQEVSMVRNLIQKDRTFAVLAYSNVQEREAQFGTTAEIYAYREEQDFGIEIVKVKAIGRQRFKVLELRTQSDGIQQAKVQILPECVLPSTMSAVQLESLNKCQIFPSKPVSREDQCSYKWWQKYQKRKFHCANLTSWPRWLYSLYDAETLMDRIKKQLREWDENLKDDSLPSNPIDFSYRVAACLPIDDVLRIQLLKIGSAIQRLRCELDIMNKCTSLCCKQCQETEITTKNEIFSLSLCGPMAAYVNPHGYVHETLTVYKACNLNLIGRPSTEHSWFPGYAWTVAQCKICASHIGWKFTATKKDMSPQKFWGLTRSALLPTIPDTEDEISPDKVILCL
T1 sequence (P53671 whole entry): as the sequence (P53671 whole entry) above

SMILES: Cc1c(OCc2cn(CCCCC(=O)Nc3ncc(-c4cc(C(F)F)nn4-c4c(Cl)cccc4Cl)s3)nn2)cccc1N1CCC(=O)NC1=O [22b]
- cytotoxic effects [1]: no cytotoxic effects
- proteins enriched by CRBN:PROTAC pull-down [2]: selectively recruited and enriched LIMK2 but not LIMK1
- Dmax ([3]; 0.01 nM PROTAC): 4.5%
- Dmax ([3]; 10000 nM PROTAC): 96.1%
